Results reported in PubChem BioAssay AID1963424 (Molecular Pharmacology Branch, DTP, NCI, 2024).

Tested on: 327498-153-R-J2-PDC complex spheroid growth, % test/control
Test: Anticancer human tumor 327498-153-R-J2-PDC patient-derived uterine carcinosarcoma cell line growth inhibition [Asc]
Conditions: for IC50: curve of first compound; for viability, T/C: stronger effect = lower value
Protocol: Multicellular complex tumor spheroid response to apoptosis pathway targeting inhibitors Alrizomadlin, Pelcitoclax, and Dasminapant in combination with a variety of drugs and investigational agents in selected tumor cell lines
The MDM2 inhibitor alrizomadlin, the Bcl-2/Bcl-xL inhibitor pelcitoclax, and the IAPs inhibitor dasminapant were evaluated both individually and in combination with standard of care and investigational anticancer small molecules within a complex spheroid model of solid tumors. . Complex spheroids include a stromal component modeled by human endothelial cells (HUVEC) and fibroblasts modeled by human mesenchymal stem cells (MSCs). The concentration ranges selected for each drug and investigational agent were based upon clinically achievable concentrations if the clinical Cmax of the agent was known.
Compounds. The drugs and investigational agents: alrizomadlin (APG-115; NSC831270), pelcitoclax (APG-1252; NSC835773), dasminapant (APG-1387;NSC834197), TAK-243 (NSC785004), copanlisib (NSC809693), olaparib (NSC753686), talazoparib (NSC767125), cobimetinib (NSC 768068), eltanexor (KPT-8602, NSC 794443), abemaciclib (NSC 768073), sotorasib (NSC818433), adagrasib (NSC 831453), MRTX-1133 (NSC 836407), Iadademestat (ORY1001, NSC 806812), and RMC-4630 (NSC839698), were obtained from the NCI Developmental Therapeutics Program Chemical Repository. The FDA-approved anticancer drug set is available from the Developmental Therapeutics Program at https://dtp.cancer.gov/organization/dscb/obtaining/available plates.htm. […] The stock solutions were prepared in dimethyl sulfoxide (DMSO, Sigma-Aldrich, St. Louis, MO, cat. D2650) at 800-fold the tested concentration and stored at -70 degrees C prior to their use. All drugs and investigational agents were tested over a range starting from a high concentration at or near the clinical Cmax and decreasing in half-log increments. If the clinical Cmax for an agent had not been determined, the highest concentration tested was 10 microM.
The patient-derived cancer (PDC) cell lines include five colon adenocarcinomas: 186277-243-T-J2-PDC, 616215-338-R-J1-PDC, 439559-082-T-J2-PDC, 463943-066-T-J2-PDC, and 519858-162-T-J1-PDC; three pancreatic carcinomas: 323965-272-R-J2-PDC, 521955-158-R6-J3-PDC, and 521955-158-R2-J5-PDC; two uterine sarcomas: 327498-152-R-J2-PDC and 993429-296-R-J1-PDC; two rhabdomyosarcomas: 755483-174-R-J1-PDC and 772245-204-R-J1-PDC; two soft tissue sarcomas: 126254-015-R-J1-PDC and 494315-158-R-J1-PDC; two malignant fibrous histiocytomas: 317291-083-R-J1-PDC and 596521-263-R-J1-PDC; two breast carcinomas: 171881-019-R-J1-PDC and 885512-296-R-J2-PDC; and one ovarian carcinoma: 6556581-035-R-J-PDC were obtained from the NCI PDMR, (https://pdmr.cancer.gov). The established cell lines HSSY-2 synovial sarcoma (RRID:CVCL 8719), SYO-1 synovial sarcoma (RRID:CVCL_7146), MPNST malignant peripheral neural sheath tumor were obtained from the Sloan Kettering Institute. The following established cell lines were purchased from the American Type Culture Collection (ATCC, Manassas, VA), Sor the received from the NCI repository:, PANC-1 pancreatic carcinoma (CRL-1469, RRID:CVCL_0480), OVCAR-5 ovarian carcinoma (RRID:CVCL_1628), OVCAR-8 ovarian carcinoma (RRID:CVCL_1629), , MCF-7 breast carcinoma (CRL-12584, RRID:CVCL_0031), MDA-MB-231 breast carcinoma (CRL-12532, RRID:CVCL_0062), NCI-H1876 small cell lung carcinoma (CRL-5902, RRID:CVCL_1503), NCI-H510A small cell lung carcinoma (HTB-184, RRID:CVCL_1565), NCI-H1417 (CRL-5869, RRID:CVCL_1469), and NCI-H196 small cell lung carcinoma (CRL-5823, RRID:CVCL_1509). Dr. Peter Houghton (Greehey Children's Cancer Research Institute, University of Texas Health Science Center, San Antonio, TX) provided Rh-18 rhabdomyosarcoma (RRID:CVCL_1659). Pooled donor human umbilical vein endothelial cells (HUVEC, Lonza, cat. CC-2519) and human mesenchymal stem cells (hMSC, Lonza, cat. PT-2501) were purchased from Lonza (Walkersville, MD).
Cell Culture. […]
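Note: spheroids exposed to compound for 7 days after 3 days of growth.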
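Throughout, for viability, T/C: 100% = DMSO vehicle control wells.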

For Cn1ncnc1[C@H]1c2n[nH]c(=O)c3cc(F)cc(c23)N[C@@H]1c1ccc(F)cc1 + CCN1C(C(=O)NC23CCC(C(=O)O)(CC2)CC3)C(c2cccc(Cl)c2F)C2(C(=O)Nc3cc(Cl)ccc32)C12CCCCC2, the IC50 (second compound 0.03 µM) was 6.09 nM, the IC50 (second compound 0.0949 µM) was 2.66 nM and the IC50 (second compound 0.3 µM) was under 0.316 nM. It also gave an IC50 (second compound 0.949 µM) of under 0.316 nM, an IC50 (second compound 3 µM) of under 0.316 nM and a viability, T/C (second compound 0.03 µM, first compound 0.000316 µM) of 99.9%. The viability, T/C (second compound 0.03 µM, first compound 0.001 µM) was 90%, the viability, T/C (second compound 0.03 µM, first compound 0.00316 µM) was 70.8% and the viability, T/C (second compound 0.03 µM, first compound 0.01 µM) was 34.8%. It also gave a viability, T/C (second compound 0.03 µM, first compound 0.0316 µM) of 12.6%, a viability, T/C (second compound 0.03 µM, first compound 0.1 µM) of 6.28% and a viability, T/C (second compound 0.0949 µM, first compound 0.000316 µM) of 75.8%. It also gave a viability, T/C (second compound 0.0949 µM, first compound 0.001 µM) of 73.4%, a viability, T/C (second compound 0.0949 µM, first compound 0.00316 µM) of 45% and a viability, T/C (second compound 0.0949 µM, first compound 0.01 µM) of 17.4%. For the same compound, the viability, T/C (second compound 0.0949 µM, first compound 0.0316 µM) was 7.19%, the viability, T/C (second compound 0.0949 µM, first compound 0.1 µM) was 4.65% and the viability, T/C (second compound 0.3 µM, first compound 0.000316 µM) was 45.2%. It also gave a viability, T/C (second compound 0.3 µM, first compound 0.001 µM) of 28.2%, a viability, T/C (second compound 0.3 µM, first compound 0.00316 µM) of 16% and a viability, T/C (second compound 0.3 µM, first compound 0.01 µM) of 6.36%. For the same compound, the viability, T/C (second compound 0.3 µM, first compound 0.0316 µM) was 3.88%, the viability, T/C (second compound 0.3 µM, first compound 0.1 µM) was 3.44% and the viability, T/C (second compound 0.949 µM, first compound 0.000316 µM) was 5.73%. For the same compound, the viability, T/C (second compound 0.949 µM, first compound 0.001 µM) was 7.29%, the viability, T/C (second compound 0.949 µM, first compound 0.00316 µM) was 3.58% and the viability, T/C (second compound 0.949 µM, first compound 0.01 µM) was 1.98%. The viability, T/C (second compound 0.949 µM, first compound 0.0316 µM) was 2.28%, the viability, T/C (second compound 0.949 µM, first compound 0.1 µM) was 1.93% and the viability, T/C (second compound 3 µM, first compound 0.000316 µM) was 3.13%. The viability, T/C (second compound 3 µM, first compound 0.001 µM) was 8.85%, the viability, T/C (second compound 3 µM, first compound 0.00316 µM) was 2.79% and the viability, T/C (second compound 3 µM, first compound 0.01 µM) was 2.59%. For the same compound, the viability, T/C (second compound 3 µM, first compound 0.0316 µM) was 1.49% and the viability, T/C (second compound 3 µM, first compound 0.1 µM) was 2.35%.

CNC(C)C(=O)NC1CN(S(=O)(=O)c2cccc(S(=O)(=O)N3CCC4CCC(C(=O)NC(c5ccccc5)c5ccccc5)N4C(=O)C(NC(=O)C(C)NC)C3)c2)CCC2CCC(C(=O)NC(c3ccccc3)c3ccccc3)N2C1=O (stereo not given) + Cc1c(S(C)(=O)=O)c(-c2cc(F)cc(N3CCN(c4ccc(NS(=O)(=O)c5ccc(NC(CCN6CCC(C(=O)OCCCP(=O)(O)O)CC6)CSc6ccccc6)c(S(=O)(=O)C(F)(F)F)c5)cc4)CC3)c2)c(-c2ccc(Cl)cc2)n1C(C)C showed an IC50 (second compound 0.1 µM) of over 1000 nM, an IC50 (second compound 0.316 µM) of over 1000 nM and an IC50 (second compound 1 µM) of over 1000 nM. The IC50 (second compound 3.16 µM) was over 1000 nM, the IC50 (second compound 10 µM) was over 1000 nM and the viability, T/C (second compound 0.1 µM, first compound 0.00316 µM) was 94.1%. It also gave a viability, T/C (second compound 0.1 µM, first compound 0.01 µM) of 91.2%, a viability, T/C (second compound 0.1 µM, first compound 0.0316 µM) of 98% and a viability, T/C (second compound 0.1 µM, first compound 0.1 µM) of 92.3%. The viability, T/C (second compound 0.1 µM, first compound 0.316 µM) was 93.8%, the viability, T/C (second compound 0.1 µM, first compound 1 µM) was 82.4% and the viability, T/C (second compound 0.316 µM, first compound 0.00316 µM) was 93.1%. The viability, T/C (second compound 0.316 µM, first compound 0.01 µM) was 93.3%, the viability, T/C (second compound 0.316 µM, first compound 0.0316 µM) was 96.6% and the viability, T/C (second compound 0.316 µM, first compound 0.1 µM) was 87.2%. It also gave a viability, T/C (second compound 0.316 µM, first compound 0.316 µM) of 87.7%, a viability, T/C (second compound 0.316 µM, first compound 1 µM) of 83.9% and a viability, T/C (second compound 1 µM, first compound 0.00316 µM) of 100%. For the same compound, the viability, T/C (second compound 1 µM, first compound 0.01 µM) was 90.6%, the viability, T/C (second compound 1 µM, first compound 0.0316 µM) was 97% and the viability, T/C (second compound 1 µM, first compound 0.1 µM) was 80.3%. The viability, T/C (second compound 1 µM, first compound 0.316 µM) was 82.1%, the viability, T/C (second compound 1 µM, first compound 1 µM) was 92.2% and the viability, T/C (second compound 3.16 µM, first compound 0.00316 µM) was 84.4%. For the same compound, the viability, T/C (second compound 3.16 µM, first compound 0.01 µM) was 90.8%, the viability, T/C (second compound 3.16 µM, first compound 0.0316 µM) was 88.4% and the viability, T/C (second compound 3.16 µM, first compound 0.1 µM) was 86%. It also gave a viability, T/C (second compound 3.16 µM, first compound 0.316 µM) of 89.8%, a viability, T/C (second compound 3.16 µM, first compound 1 µM) of 85% and a viability, T/C (second compound 10 µM, first compound 0.00316 µM) of 173%. The viability, T/C (second compound 10 µM, first compound 0.01 µM) was 166%, the viability, T/C (second compound 10 µM, first compound 0.0316 µM) was 156% and the viability, T/C (second compound 10 µM, first compound 0.1 µM) was 146%. For the same compound, the viability, T/C (second compound 10 µM, first compound 0.316 µM) was 153% and the viability, T/C (second compound 10 µM, first compound 1 µM) was 136%.
